From the supplement of paper PMC10331698
± gives the standard deviation of the averaged measurements.

Columns and labels:
Assay in all cases: level (log10 ratio to DMSO vehicle control); higher = higher biomarker level / cell amount than vehicle control
Settings in all cases: in DMSO
[1] = compound: CCN(CCO)S(=O)(=O)C(F)(F)C(F)(F)C(F)(F)C(F)(F)C(F)(F)C(F)(F)C(F)(F)C(F)(F)F [N-Ethyl-N-(2-hydroxyethyl)perfluorooctanesulfonamide]
Procedure: (§1)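 BioMAP Diversity Plus panel of 12 human primary cell co-culture systems (3C, 4H, LPS, SAg, BT, BF4T, BE3C, CASM3C, HDF3CGF, KF3CT, MyoF, Mphg). Compounds were added 1 h before stimulation and left for 24 h (MyoF 48 h; BT 72 h for soluble read-outs or 6 d for IgG). Biomarkers were read by ELISA, cytotoxicity by SRB, PBMC viability and proliferation by Alamar Blue. Each well value was divided by the mean of 8 DMSO control wells on the same plate and log10 transformed; duplicate blinded samples were tested at 4 concentrations.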

[2] = compound: COC(=O)CCC(F)(F)C(F)(F)C(F)(F)C(F)(F)F [Methyl 2H,2H,3H,3H-perfluoroheptanoate]
Procedure: as §1

[3] = compound: FC(F)(F)C(F)(F)C(F)(F)C(F)(F)C(F)(F)C(F)(F)C(F)(F)C(F)(F)CCS [2-(Perfluorooctyl)ethanthiol]
Procedure: as §1

[4] = compound: FC(F)(F)C(F)(F)C(F)(F)C(F)(F)C(F)(F)CCI [1-Iodo-1H,1H,2H,2H-perfluoroheptane]
Procedure: as §1

[5] = compound: NCC(F)(F)C(F)(F)C(F)(F)C(F)(F)C(F)(F)C(F)(F)C(F)(F)F [1H,1H-Perfluorooctylamine]
Procedure: as §1

[6] = compound: O=C(O)C(F)(F)C(F)(F)C(F)(F)C(F)(F)C(F)(F)C(F)(F)C(F)(F)C(F)F [9-H-Perfluorononanoic acid]
Procedure: as §1

[7] = compound: OCCC(F)(F)C(F)(F)C(F)(F)C(F)(F)C(F)(F)C(F)(F)F [6:2 Fluorotelomer alcohol]
Procedure: as §1

Test System	level (log10) ([1]; 6700 nM)	level (log10) ([1]; 20000 nM)	level (log10) ([2]; 6700 nM)	level (log10) ([2]; 20000 nM)	level (log10) ([2]; 60000 nM)	level (log10) ([3]; 6700 nM)	level (log10) ([3]; 20000 nM)	level (log10) ([4]; 6700 nM)	level (log10) ([4]; 20000 nM)	level (log10) ([4]; 60000 nM)	level (log10) ([5]; 6700 nM)	level (log10) ([5]; 20000 nM)	level (log10) ([5]; 60000 nM)	level (log10) ([6]; 6700 nM)	level (log10) ([6]; 20000 nM)	level (log10) ([6]; 60000 nM)	level (log10) ([7]; 6700 nM)	level (log10) ([7]; 20000 nM)
lMphg:CCL3/MIP-1alpha	0.0325 ± 0.035	0.112 ± 0.013	-0.0315 ± 0.005	-0.013 ± 0.0028	-0.004 ± 0.045	-0.019 ± 0.014	-0.027 ± 0.014	0.0165 ± 0.032	0.003 ± 0.021	0.0185 ± 0.08	0 ± 0.0099	-0.0215 ± 0.016	0.0035 ± 0.044	-0.005	-0.0065 ± 0.0021	0.0195 ± 0.036	-0.0295 ± 0.0064	-0.0295 ± 0.021
KF3CT:IL-1alpha	0.006 ± 0.028	-0.111	-0.0295 ± 0.019	-0.019 ± 0.018	-0.0095 ± 0.029	-0.0065 ± 0.026	-0.009 ± 0.0042	0.01 ± 0.016	0.009 ± 0.0057	-0.0295 ± 0.016	-0.0225 ± 0.0035	-0.001 ± 0.013	-0.0095 ± 0.0021	0.006 ± 0.0071	-0.0195 ± 0.012	-0.039 ± 0.035	0.003 ± 0.041	-0.0085 ± 0.011
3C:CD142/Tissue Factor	0.0825 ± 0.036	0.235 ± 0.059	-0.0115 ± 0.066	-0.038 ± 0.021	-0.0005 ± 0.026	-0.0345 ± 0.022	-0.0335 ± 0.015	0.003 ± 0.016	0.0155 ± 0.00071	0.0295 ± 0.00071	-0.0275 ± 0.00071	-0.0105 ± 0.00071	-0.0255 ± 0.011	0.035 ± 0.0028	0.027 ± 0.0042	0.059 ± 0.023	-0.003 ± 0.044	-0.014 ± 0.025
lMphg:CD40	-0.025 ± 0.017	-0.0335 ± 0.018	-0.0295 ± 0.0035	-0.0285 ± 0.005	-0.039 ± 0.034	0.0035 ± 0.086	0.017 ± 0.048	-0.004 ± 0.0042	-0.008 ± 0.013	-0.058 ± 0.02	0.0025 ± 0.005	-0.0125 ± 0.035	-0.069 ± 0.054	0.014 ± 0.011	0.003 ± 0.017	-0.01 ± 0.024	-0.029 ± 0.0057	-0.0435 ± 0.025
HDF3CGF:CXCL11/I-TAC	-0.0535 ± 0.046	-0.172 ± 0.041	-0.002 ± 0.013	0.0215 ± 0.0021	-0.0055 ± 0.011	-0.0135 ± 0.028	-0.0355 ± 0.0092	-0.0155 ± 0.00071	-0.027 ± 0.0042	-0.143 ± 0.042	-0.0135 ± 0.035	-0.021 ± 0.033	-0.046 ± 0.078	-0.059 ± 0.0085	-0.078 ± 0.0099	-0.09 ± 0.021	0.002 ± 0.0071	0.0155 ± 0.0035
CASM3C:CD87/uPAR	-0.0595 ± 0.0092	-0.09 ± 0.038	-0.029 ± 0.035	-0.0275 ± 0.026	-0.0185 ± 0.022	-0.0395 ± 0.053	-0.0205 ± 0.04	0.008 ± 0.016	-0.0075 ± 0.0078	-0.0265 ± 0.037	-0.044 ± 0.083	-0.0315 ± 0.043	0.025 ± 0.047	-0.001 ± 0.014	0.0045 ± 0.011	0.029 ± 0.0057	-0.026 ± 0.013	-0.002 ± 0.0042
HDF3CGF:PAI-I	-0.0695 ± 0.061	-0.211 ± 0.08	0.0005 ± 0.0035	-0.0055 ± 0.0092	0.002 ± 0.021	-0.077 ± 0.054	-0.0885 ± 0.066	0.078 ± 0.02	0.0135 ± 0.0078	0.0355 ± 0.096	0.008 ± 0.033	-0.018 ± 0.0042	-0.003 ± 0.023	-0.0135 ± 0.0092	0.004 ± 0.0028	0.0175 ± 0.023	-0.013 ± 0.014	-0.004 ± 0.013
KF3CT:uPA	0.022 ± 0.0028	-0.0225 ± 0.0021	-0.007 ± 0.033	0.0005 ± 0.0092	-0.008 ± 0.025	0.006 ± 0.013	0.001 ± 0.016	-0.001 ± 0.034	0.0145 ± 0.022	0.0125 ± 0.00071	-0.017 ± 0.0028	-0.0135 ± 0.0078	-0.0225 ± 0.019	0.006 ± 0.024	0.003 ± 0.024	-0.0115 ± 0.00071	-0.015 ± 0.023	-0.0055 ± 0.015
HDF3CGF:EGFR	-0.102 ± 0.024	-0.115 ± 0.0021	-0.0045 ± 0.0078	0.0105 ± 0.029	-0.0055 ± 0.053	-0.0295 ± 0.018	-0.018 ± 0.04	0.046 ± 0.02	0.059 ± 0.021	0.038 ± 0.031	-0.039 ± 0.047	-0.047 ± 0.073	-0.034 ± 0.086	-0.011 ± 0.0028	-0.024 ± 0.0057	-0.034 ± 0.014	0.0005 ± 0.012	0.006 ± 0.0099
3C:CD62E/E-Selectin	0.0685 ± 0.012	0.068 ± 0.0057	-0.037 ± 0.0071	-0.012 ± 0.013	0.0005 ± 0.022	-0.0065 ± 0.03	-0.0235 ± 0.036	-0.005 ± 0.0071	0.004 ± 0.011	0.008 ± 0.018	-0.0045 ± 0.047	0.022 ± 0.02	0.0335 ± 0.011	-0.009 ± 0.014	-0.0145 ± 0.0092	0.006 ± 0.025	-0.0075 ± 0.043	-0.024 ± 0.042
lMphg:SRB-Mphg	0.0095 ± 0.00071	0.001 ± 0.021	-0.0285 ± 0.012	-0.022 ± 0.095	0.04 ± 0.057	0.007 ± 0.0057	0.0105 ± 0.018	0.004 ± 0.0028	-0.0015 ± 0.0035	0.009 ± 0.013	-0.0055 ± 0.005	-0.007 ± 0.0042	0.0055 ± 0.032	0.0225 ± 0.018	0.043 ± 0.013	0.0175 ± 0.032	-0.0055 ± 0.0064	-0.0255 ± 0.011
3C:CD54/ICAM-1	0.03 ± 0.013	0.075 ± 0.065	-0.0175 ± 0.0078	-0.017	0.002 ± 0.017	-0.0055 ± 0.012	0.0005 ± 0.016	0.0055 ± 0.021	0.0015 ± 0.0092	0.0085 ± 0.005	-0.0105 ± 0.028	-0.0125 ± 0.039	-0.015 ± 0.025	-0.006	-0.0055 ± 0.0092	0.008 ± 0.013	-0.006 ± 0.013	-0.0185 ± 0.044
HDF3CGF:CXCL8/IL-8	0.0345 ± 0.016	0.011 ± 0.0071	-0.006 ± 0.013	-0.01 ± 0.024	-0.0035 ± 0.0021	-0.004 ± 0.0099	-0.0095 ± 0.00071	0.001 ± 0.0099	0.011 ± 0.0028	0.0225 ± 0.0064	-0.0025 ± 0.005	-0.018 ± 0.0099	-0.002 ± 0.0042	-0.0055 ± 0.0021	-0.0055 ± 0.0064	0.0015 ± 0.0035	0.004 ± 0.0028	0.004
MyoF:alpha-SM Actin	0.0845 ± 0.023	-0.235 ± 0.057	-0.009 ± 0.024	-0.007 ± 0.02	-0.0035 ± 0.04	-0.0145 ± 0.036	-0.103 ± 0.037	-0.0265 ± 0.029	-0.003 ± 0.018	-0.009 ± 0.0071	-0.017 ± 0.075	0.0285 ± 0.0078	0.042	-0.0215 ± 0.019	-0.0245 ± 0.013	-0.049 ± 0.014	-0.001 ± 0.018	0.0095 ± 0.026
KF3CT:MMP-9	0.01 ± 0.0085	-0.0875 ± 0.015	-0.012 ± 0.047	-0.0145 ± 0.035	-0.024 ± 0.017	-0.029 ± 0.035	-0.0275 ± 0.037	-0.017 ± 0.011	-0.0265 ± 0.025	-0.029 ± 0.021	0.0085 ± 0.0092	0.0025 ± 0.0035	0.0065 ± 0.005	-0.05 ± 0.013	0.004 ± 0.0014	0.0475 ± 0.011	-0.007 ± 0.035	-0.0045 ± 0.015
